The values below come from patent publication US6750178B1, “Agrochemical composition” (Syngenta Limited, priority 1999, dated 2004).

What all share (assay type): in vivo
For test [1], the system named is Abutilon theophrasti (ABUTH). The test is described as follows: Glass-house visual % control with potassium glyphosate plus adjuvant. Conditions: potassium glyphosate 500 g glyphosate acid equivalent/ha, adjuvant 0.2% w/v, 200 l/ha, 16 days after treatment, 0=unaffected, 100=complete kill. The procedure:
Potassium glyphosate was applied at 500 g glyphosate acid equivalent/ha to Abutilon theophrasti (ABUTH) plants grown in the glass-house. All treatments were made up in deionised water and applied using a tracksprayer with a 11002 nozzle at a spray application volume of 200 l/ha . All treatments were replicated 4 times. After spraying the plants were laid out in a glass-house and maintained at a temperature of 24° C. by day and 19° C. by night. The JEFFAMINE adjuvants were used in a proportion 0.2% w/v. A visual assessment of % control, where 0=unaffected and 100=complete kill, was carried out 16 days after treatment.

Test [2] relates to Ipomoea hederacea (IPOHE). The test is described as follows: Glass-house visual % control with potassium glyphosate plus adjuvant, IPOHE. The conditions noted are these: potassium glyphosate 300 g glyphosate acid equivalent/ha, AL2042 0.2% w/v, CRODAFOS T5A salts 0.2% w/v phosphate ester acid equivalent, 16 days after treatment. From the text:
This Example illustrates the use of a salt of ethoxy (5 moles of EO) isotridecyl phosphate, ester in the acid form (CRODAFOS T5A) with JEFFAMINE ED600. CRODAFOS T5A is a mixture of mono and di esters. CRODAFOS is a tradename of Croda.
Potassium glyphosate, in combination with the adjuvants specified below, was applied to Ipomoea hederacea (IPOHE) at 300 g glyphosate acid equivalent/ha. All treatments were made up in deionised water and applied using a tracksprayer with a 11002 nozzle at a spray application volume of 200 l/ha. All treatments were replicated 4 times. After spraying the plants were laid out in a glass-house and maintained at a temperature of 24° C. by day and 19° C. by night. A visual assessment of % control was carried out 16 days after treatment.
The AL2042 was applied at 0.2% w/v and the CRODAFOS T5A salts were applied at 0.2% w/v phosphate ester acid equivalent. The Crodafos T5A potassium salt was prepared by neutralising the phosphate ester in its acid form with potassium hydroxide to pH6. The CRODAFOS T5A JEFFAMINE ED600 salt was prepared by neutralising the phosphate ester in its acid form with JEFFAMINE ED600 to pH6.

Another test deals with SIDSP. The test is described as follows: Glass-house ED90 of paraquat dichloride plus adjuvant, SIDSP. The conditions noted are these: paraquat dichloride 15, 45, 135 and 270 g/ha paraquat ion; adjuvant 0.1% w/v; 18 days after treatment.
Test [3] has as its system Soghinm halepenise(SORHA). The test is described as follows: Glass-house ED90 of glyphosate salts, SORHA. Conditions: calculated dose for 90% control; rates 500-4000 glyphosate acid equivalent/ha; AL2042 0.25% w/v with all treatments; 22 days after treatment. The text has this: This Example illustrates the use of salts of glyphosate acid and the adjuvants of Formula (I).
Glyphosate trimesium and the glyphosate salts of the indicated adjuvants of formula (I) were applied to Soghinm halepenise(SORHA) at 500, 1000, 2000 and 4000 glyphosate acid equivalent/ha. All treatments were made up in deionised water and applied using a tracksprayer with a 11002 nozzle at a spray application volume of 200 l/ha . All treatments were replicated 3 times. After spraying the plants were laid out in a glass-house and maintained at a temperature of 24° C. by day and 19° C. by night. A visual assessment of % control was carried out 22 days after treatment and calculated doses for 90% control (ED90) were derived. AL2042 alkylpolygylcoside was used at 0.25% w/v as additional surfactant with all treatments. It will be appreciated that a low ED90 value indicates high activity.

Turning to `O=C(O)CNCP(=O)([O-])O.[K+]` [No adjuvant, Potassium glyphosate], in test [1], the “% control” value is recorded as 37%. Also, the “IPOHE — % control” value in test [2] is given as 64%.
In the case of `C[n+]1ccc(-c2cc[n+](C)cc2)cc1` [Control — No adjuvant, Paraquat dichloride], in the test on SIDSP, the “ED90 SIDSP” value is given as “(>270) g paraquat ion per litre”.
Consider `C[S+](C)C.O=C([O-])CNCP(=O)(O)O` [Glyphosate trimesium], for which the “SORHA — ED90” value in test [3] is reported as 1410 gae/ha.
